# Columns and labels:
# CDK2 [1] = target: T1, CDK2 (Homo sapiens, UniProt P24941); assay: Inhibition of CDK2: phospho-Rb (S807/811) HTRF measurement in OVCAR3 cells, 24 h; type: cell-based; conditions: 24 h compound treatment, read-out: pRB_OVCAR3_24h
# T1 construct: High-Throughput Measurement of Cellular Endogenous CDK2; endogenous in cells; host or cells: OVCAR3
# Method in brief: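 OVCAR3 cells, seeded overnight, were exposed to compounds at 0.3 to 10,000 nM for 24 h, then lysed. Rb S807/811 phosphorylation read by HTRF (665/620 nm ratio) after 4 h detection at room temperature; data normalized to DMSO and IC50 from four-parameter logistic fit.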
# CDK2 [2] = target: T1, CDK2; assay: High-throughput HTRF measurement of cellular endogenous CDK2 level (degradation, DC50/Dmax) in OVCAR3 cells, 6 h; type: cell-based; conditions: 6 h compound treatment, HTRF total CDK2, read-out: DC50_OVCAR3_6h
# Method in brief: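 OVCAR3 cells were treated overnight after seeding with compounds at 0.03–1,000 nM for 6 h, then lysed. Total CDK2 was quantified by HTRF (d2- and Eu-cryptate anti-CDK2 antibodies, […] ratio) after overnight incubation at room temperature. Data normalized to DMSO (0%) and lysis buffer (100% degradation); DC50 from four-parameter logistic fit.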
Compound,IC50 (CDK2 [1]) [nM],DC50 (CDK2 [2]) [nM]
"Cn1nc(N2CCC(=O)NC2=O)c2cc(F)c(C3CCN(CC4CCN(c5cccc(S(=O)(=O)N6CCC(Nc7ncc(Cl)cn7)CC6)c5)CC4)CC3)cc21 [Example 99, 1-(6-(1-((1-(3-((4-((5-chloropyrimidin-2-yl)amino)piperidin-1-yl)sulfonyl)phenyl)-piperidin-4-yl)methyl)piperidin-4-yl)-5-fluoro-1-methyl-1H-indazol-3-yl)dihydropyrimidine-2,4(1H,3H)-dione]",1 to 100,10 to 100
"Cn1nc(N2CCC(=O)NC2=O)c2cc(F)c(C3CCN(CC4CCN(c5cccc(S(=O)(=O)N6CCC(Nc7ncc(C(F)(F)F)cn7)CC6)c5)CC4)CC3)cc21 [Example 100, 1-(5-fluoro-1-methyl-6-(1-((1-(3-((4-((5-(trifluoromethyl)pyrimidin-2-yl)amino)-piperidin-1-yl)sulfonyl)phenyl)piperidin-4-yl)methyl)piperidin-4-yl)-1H-indazol-3-yl)dihydropyrimidine-2,4(1H,3H)-dione]",1 to 100,10 to 100
"O=C1CCC(N2Cc3cc(N4CCC(N5CC(Oc6cccc(S(=O)(=O)N7CCC(Nc8ncc(Cl)cn8)CC7)c6)C5)CC4)ccc3C2=O)C(=O)N1 (stereo not shown) [Example 105, 3-(5-(4-(3-(3-((4-((5-chloropyrimidin-2-yl)amino)piperidin-1-yl)sulfonyl)phenoxy)-azetidin-1-yl)piperidin-1-yl)-1-oxoisoindolin-2-yl)piperidine-2,6-dione]",100 to 500,10 to 100
"Cn1c(=O)n(C2CCC(=O)NC2=O)c2cccc(C3CCN(CC4CCN(c5cccc(S(=O)(=O)N6CCC(Nc7ncc(C(F)(F)F)cn7)CC6)c5)CC4)CC3)c21 (stereo not shown) [Example 107, 3-(3-methyl-2-oxo-4-(1-((1-(3-((4-((5-(trifluoromethyl)pyrimidin-2-yl)amino)-piperidin-1-yl)sulfonyl)phenyl)piperidin-4-yl)methyl)piperidin-4-yl)-2,3-dihydro-1H-benzo[d]imidazol-1-yl)piperidine-2,6-dione]",1 to 100,1 to 10
"Cn1nc(N2CCC(=O)NC2=O)c2ccc(C3CCN(CC4CN(c5cccc(S(=O)(=O)N6CCC(Nc7ncc(C(F)(F)F)cn7)CC6)c5)C4)CC3)cc21 [Example 108, 1-(1-methyl-6-(1-((1-(3-((4-((5-(trifluoromethyl)pyrimidin-2-yl)amino)-piperidin-1-yl)sulfonyl)phenyl)azetidin-3-yl)methyl)piperidin-4-yl)-1H-indazol-3-yl)dihydropyrimidine-2,4(1H,3H)-dione]",1 to 100,10 to 100
"Cn1nc(N2CCC(=O)NC2=O)c2ccc(C3CCN(CC4CCN(c5cccc(S(=O)(=O)N6CCC(Nc7ncc(OC(F)(F)F)cn7)CC6)c5)CC4)CC3)cc21 [Example 115, 1-(1-methyl-6-(1-((1-(3-((4-((5-(trifluoro-methoxy)pyrimidin-2-yl)amino)piperidin-1-yl)sulfonyl)phenyl)piperidin-4-yl)methyl)piperidin-4-yl)-1H-indazol-3-yl)dihydropyrimidine-2,4(1H,3H)-dione]",1 to 100,10 to 100
"C[C@@H]1CN(CC2CCN(c3cccc(S(=O)(=O)N4CCC(Nc5ncc(Cl)cn5)CC4)c3)CC2)CCN1c1ccc2c(N3CCC(=O)NC3=O)nn(C)c2c1 [Example 116, (R)-1-(6-(4-((1-(3-((4-((5-chloropyrimidin-2-yl)amino)piperidin-1-yl)sulfonyl)phenyl)-piperidin-4-yl)methyl)-2-methylpiperazin-1-yl)-1-methyl-1H-indazol-3-yl)dihydropyrimidine-2,4(1H,3H)-dione]",1 to 100,10 to 100
"O=C1CCC(N2Cc3cc(C4CCN(CC5CCN(c6cccc(S(=O)(=O)N7CCC(Nc8ncc(C(F)(F)F)cn8)CC7)c6)CC5)CC4)c(F)cc3C2=O)C(=O)N1 (stereo not shown) [Example 119, 3-(6-fluoro-1-oxo-5-(1-((1-(3-((4-((5-(trifluoromethyl)pyrimidin-2-yl)amino)-piperidin-1-yl)sulfonyl)phenyl)piperidin-4-yl)methyl)piperidin-4-yl)isoindolin-2-yl)piperidine-2,6-dione]",1 to 100,1 to 10

# Source: patent publication US20260167623A1 (NIKANG THERAPEUTICS, INC., priority 2022, published 2026)
